Results on 1 compound are retold here after BindingDB's records for patent US20250019381 (Cardurion Pharmaceuticals, 2025).

In the assay the target is Dual specificity calcium/calmodulin-dependent 3',5'-cyclic nucleotide phosphodiesterase 1A (Human, UniProt P54750). Put plainly: Enzyme immunoassay.
Chain of Dual specificity calcium/calmodulin-dependent 3',5'-cyclic nucleotide phosphodiesterase 1A (P54750 whole entry): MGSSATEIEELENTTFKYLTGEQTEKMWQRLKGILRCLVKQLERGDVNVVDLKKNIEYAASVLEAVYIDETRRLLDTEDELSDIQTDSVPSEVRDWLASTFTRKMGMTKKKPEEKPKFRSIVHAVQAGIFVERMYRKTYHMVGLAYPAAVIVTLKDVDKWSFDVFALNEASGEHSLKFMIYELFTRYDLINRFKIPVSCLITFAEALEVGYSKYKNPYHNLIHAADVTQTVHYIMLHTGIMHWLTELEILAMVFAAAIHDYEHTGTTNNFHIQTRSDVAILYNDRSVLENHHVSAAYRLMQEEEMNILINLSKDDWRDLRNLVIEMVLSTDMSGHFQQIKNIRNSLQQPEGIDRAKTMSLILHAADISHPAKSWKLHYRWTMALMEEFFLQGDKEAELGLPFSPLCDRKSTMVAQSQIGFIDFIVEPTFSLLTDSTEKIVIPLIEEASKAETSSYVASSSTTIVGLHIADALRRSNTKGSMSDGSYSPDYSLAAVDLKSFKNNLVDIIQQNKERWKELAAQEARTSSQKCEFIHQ

Usually IC50 stands for the concentration needed to halve the response being measured. As to `O=c1[nH]c(CN2CC(Oc3cccnc3)C2)cn2c(C3CCOCC3)ncc12` [US20250019381, Compound (P2)], the IC50 was found to be 5.28 µM.
